Half-life data for 19 compounds are collected here from ChEMBL document CHEMBL1123995, “N-sulfonyl imidates as a novel prodrug form for an ester function or a sulfonamide group” (J Med Chem, 1988).

Each structure is given as a SMILES string.

Common to all, as to format: ADME
A short description of data set [1]: Half life of 80% diluted human plasma with 0.01 M phosphate buffer of pH 7.4. Conditions: 80% human plasma.
Data set [2] can be described thus: Half-life of hydrolysis at pH 6.0 at 37 degree C. Particulars: buffer.
A short description of data set [3]: Half-life of hydrolysis at pH 7.4 at 37 degree C. Particulars: buffer.
Data set [4] in a line: Half-life of hydrolysis at pH 4.0 at 37 degree C. Conditions: buffer.

As a reminder, the half-life is how long it takes for the measured level to halve. The low end stands for rapid decline, the high end for slow decline. `CCO/C=N\S(=O)(=O)c1ccc(C)cc1`: the results for the half-life in data set [1], in data set [2] and in data set [3] were below 0.0167 h, 0.02 h and 0.0133 h, respectively.
Consider `COC(=NS(=O)(=O)c1ccc(C)cc1)OC`, for which the half-life in data set [1] came out at 0.533 h; in data set [2], 14.5 h; in data set [3], 4.25 h.
As to `Cc1ccc(S(=O)(=O)/N=C(\OCCN2CCCCC2)c2ccccc2)cc1.Cl`, the half-life in data set [1] is below 0.0167 h; in data set [4], 0.583 h; in data set [3], 0.0217 h.
For `CCCC/C(=N/S(=O)(=O)c1ccc(C)cc1)OC`, the values for the half-life in data set [1] and in data set [3] were 0.467 h and 2.67 h, respectively.
Regarding `Cc1ccc(S(=O)(=O)/N=C(\OCCN2CCCC2=O)c2ccccc2)cc1`, the half-life in data set [1] was 0.08 h; in data set [3], 1.25 h.
In the case of `Cc1ccc(S(=O)(=O)/N=C(\OC2CCN(C)CC2)c2ccccc2)cc1.Cl`, the half-life in data set [1] was found to be 0.6 h; in data set [2], 1.5 h; in data set [3], 1.48 h.
For `CCO/C(=N\S(=O)(=O)c1ccc(C)cc1)c1ccccc1`, the values for the half-life in data set [1], in data set [2] and in data set [3] were 0.333 h, 3.67 h and 2.92 h, respectively.
The corresponding values for `CO/C(C)=N\S(=O)(=O)c1ccc(C)cc1` are 0.135 h, 2.5 h and 1.38 h.
Turning to `CCOC(=NS(=O)(=O)c1ccc(C)cc1)OCC`, the results for the half-life in data set [1] and in data set [3] were 1.3 h and 26.3 h, respectively.
Turning to `Cc1ccc(S(=O)(=O)/N=C(\Oc2ccccc2C(=O)OCC(=O)N(C)C)c2ccccc2)cc1`, the half-life stood at 0.01 h in data set [1], 1.55 h in data set [2] and 1.52 h in data set [3].
For `CCO/C(C)=N\S(=O)(=O)c1ccc(C)cc1` the same measures were 0.107 h, 2.92 h and 2.4 h.
As for `Cc1ccc(S(=O)(=O)/N=C(\OCCN(C)C)c2ccccc2)cc1.Cl`, the half-life is below 0.0167 h in data set [1], 0.583 h in data set [4] and 0.045 h in data set [3].
On to `Cc1ccc(S(=O)(=O)/N=C(\OCC(=O)N(C)C)c2ccccc2)cc1`, for which the results for the half-life in data set [1] and in data set [3] were 0.0333 h and 2.4 h, respectively.
For `CCO/C(CC)=N\S(=O)(=O)c1ccc(C)cc1` the same measures were 0.4 h and 1.8 h.
Consider `Cc1ccc(S(=O)(=O)/N=C(\OC(C)C)c2ccccc2)cc1`, for which the half-life was determined as 3.25 h in data set [1], 23 h in data set [2] and 17.4 h in data set [3].
Turning to `CCCO/C(=N\S(=O)(=O)c1ccc(C)cc1)c1ccccc1`, the half-life amounted to 0.333 h in data set [1] and 2.92 h in data set [3].
The corresponding values for `CCC/C(=N/S(=O)(=O)c1ccc(C)cc1)OC` are 0.533 h and 2.42 h.
For `CO/C(=N\S(=O)(=O)c1ccc(C)cc1)c1ccccc1` the same measures were 0.117 h and 1.9 h.
On to `Cc1ccc(S(=O)(=O)/N=C(\OCCCN(C)C)c2ccccc2)cc1.Cl`, for which the half-life in data set [1] was found to be 0.0667 h; in data set [4], 0.883 h; in data set [3], 0.183 h.
